Measurements published in patent publication US8354447B2, “mGLU receptors antagonists for treating disorders associated with mGLU receptors including addiction and depression” (The Scripps Research Institute, priority 2002, dated 2013).
Counter-ions that a name gives are not always drawn. Like-named read-outs stand apart in the source and are kept apart here.

Columns and labels:
dopamine transporter = target: T1, dopamine transporter (Homo sapiens, UniProt Q01959); details: therapeutically effective doses, humans (Meyer et al. 2002); cited from earlier work
T1 construct: host or cells: living human brain (in vivo imaging)
T1 sequence (Q01959 whole entry): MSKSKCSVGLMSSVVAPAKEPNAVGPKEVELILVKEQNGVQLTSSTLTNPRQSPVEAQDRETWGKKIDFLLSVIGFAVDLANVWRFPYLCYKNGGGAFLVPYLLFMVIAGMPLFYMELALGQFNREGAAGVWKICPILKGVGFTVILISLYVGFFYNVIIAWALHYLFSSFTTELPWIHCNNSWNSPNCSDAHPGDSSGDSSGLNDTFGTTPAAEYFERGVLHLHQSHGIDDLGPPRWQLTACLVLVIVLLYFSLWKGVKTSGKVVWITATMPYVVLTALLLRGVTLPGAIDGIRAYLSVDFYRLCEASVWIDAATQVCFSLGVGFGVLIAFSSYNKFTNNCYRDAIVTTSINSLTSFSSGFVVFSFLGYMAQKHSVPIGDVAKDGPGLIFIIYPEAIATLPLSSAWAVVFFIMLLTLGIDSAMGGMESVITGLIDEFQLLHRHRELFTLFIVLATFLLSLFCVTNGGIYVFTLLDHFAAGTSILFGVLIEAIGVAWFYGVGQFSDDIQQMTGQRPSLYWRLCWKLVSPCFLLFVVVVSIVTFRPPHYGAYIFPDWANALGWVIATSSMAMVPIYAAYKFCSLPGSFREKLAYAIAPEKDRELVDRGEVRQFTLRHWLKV

male Wistar rats [1] = test: ICSS thresholds during and after withdrawal from chronic nicotine, bupropion; type: in vivo, rat
Text: Trials began with an electrical stimulus followed by a 7.5-s response window within which the animal could make a response to receive a second contingent stimulus identical to the initial noncontingent stimulus. A response during this 7.5-s window was considered a positive response, whereas the lack of a response was considered a negative response. Additional responses during a 2-s period immediately following a positive response had no consequence. The intertrial interval (ITI) that followed either a positive response or the end of the response window (in the case of a negative response) ranged from 7.5 to 12.5 s with an average duration of 10 s. […] Subjects then were tested on a current-threshold procedure in which stimulus intensities were varied during four alternating descending and ascending series with a step size of […]. Blocks of three trials were offered at each current step with the starting current of the first descending series set at […] above the subjects' individual baseline thresholds estimated at the end of preliminary training. […] An ascending series was terminated after two consecutive blocks of trials during which the animal made positive responses on at least two out of the three trials or after 15 successive increments were presented. The mean of the four current thresholds from the alternating series was defined as the subject's ICSS threshold for that session. A series was terminated after either 15 stimulus increments (or decrements) had occurred, or after the determination of the threshold for the series (see below). Each test session typically lasted 30 min.
Naive animals were prepared with osmotic minipumps containing either an individualized nicotine solution (3.16 mg/kg per day, free base) or saline. […] After implantation of the minipumps, thresholds were assessed daily thereafter to assess the effects of chronic nicotine exposure on reward thresholds. Seven days (exactly seven 24-h periods) after pump insertion, the pumps were removed in order to precipitate the nicotine withdrawal syndrome. ICSS thresholds were measured 12, 18, 24, 36, 48 and 72 h after pump removal. Animals were injected with bupropion (0, 10, 20, 40 mg/kg IP; n=8-11) 30 min prior to the 18-h time point.

male Wistar rats [2] = test: Somatic signs of the nicotine withdrawal syndrome; type: in vivo, rat; details: for total number of somatic signs: 24 h post pump removal, 12.5 h postbupropion
Experimental: Rats were placed individually in transparent plastic cylindrical containers (30×38 cm) in which they could move freely. Subjects were habituated to the containers for 10 min each day over 3 days before the first test session. During the test sessions the rats were observed blindly by an experienced observer for 10 min and the frequency of the following signs was recorded based on a checklist of nicotine abstinence signs (Hildebrand et al. 1999; Watkins et al. 2000; Malin 2001): body shakes, chews, cheek tremors, escape attempts, eye blinks, foot licks, gasps, genital licks, head shakes, ptosis, scratches, teeth chattering, writhes and yawns. Multiple successive counts of any sign required a distinct pause between episodes. Ptosis, if present continuously, was only counted once per minute. For statistical analyses, the total number of somatic signs was defined as the sum of individual occurrences of the above mentioned withdrawal signs. Further, the categories of “abdominal constrictions” included gasps and writhes; “facial fasciculation” included cheek tremors, chews, and teeth chattering; and “miscellaneous other signs” included shakes, escape attempts, licks, scratches, and yawns.
Separate drug-naive rats were prepared with osmotic minipumps containing nicotine (3.16 mg/kg per day for 7 days) dissolved in saline. […] Further, this nicotine dose was selected to allow direct comparison of the effects of bupropion on somatic signs (present experiment 4) and on reward threshold elevations (experiment 3 described above) observed during nicotine withdrawal. To induce the somatic signs of nicotine withdrawal the minipumps were removed 6 days and 18 h after implantation. The behavioral observations were conducted 6, 12 and 24 h after the removal of the minipumps. The rats were injected with bupropion (0, 5, 10, 20, 40 mg/kg, IP; n=6-8), 30 min prior to the 12-h time point. The selection of the time points was based on the time-course of the expression of the somatic signs after the termination of nicotine exposure (Epping-Jordan et al. 1998; Harrison et al. 2001a; Semenova and Markou 2003; Skjei and Markou 2003).

male Wistar rats [3] = test: ICSS reward thresholds under baseline conditions, bupropion; type: in vivo, rat; details: bupropion 10-60 mg/kg IP, all doses tested, dose-dependent up to 40 mg/kg
Experimental: For each quarter turn, subjects received a 500 ms train of 0.1 ms cathodal square wave pulses at a frequency of 100 Hz. After successful acquisition of the response, defined as 200 consecutive reinforcements within allotted time period (usually <20 min) subjects were trained on a modification of the Kornetsky and Esposito discrete-trial currentthreshold procedure (Kornetsky and Esposito 1979), as described previously by Markou and Koob (1992).
Trials began with an electrical stimulus followed by a 7.5-s response window within which the animal could make a response to receive a second contingent stimulus identical to the initial noncontingent stimulus. A response during this 7.5-s window was considered a positive response, whereas the lack of a response was considered a negative response. Additional responses during a 2-s period immediately following a positive response had no consequence. The intertrial interval (ITI) that followed either a positive response or the end of the response window (in the case of a negative response) ranged from 7.5 to 12.5 s with an average duration of 10 s. […] Subjects then were tested on a current-threshold procedure in which stimulus intensities were varied during four alternating descending and ascending series with a step size of 5 mA. […]

rats = details: 28-day treatment, 20 mg/kg (McCarter and Kokkinidis 1988); cited from earlier work
male Wistar rats [4] = test system: male Wistar rats
Text: Trials began with an electrical stimulus followed by a 7.5-s response window within which the animal could make a response to receive a second contingent stimulus identical to the initial noncontingent stimulus. A response during this 7.5-s window was considered a positive response, whereas the lack of a response was considered a negative response. Additional responses during a 2-s period immediately following a positive response had no consequence. The intertrial interval (ITI) that followed either a positive response or the end of the response window (in the case of a negative response) ranged from 7.5 to 12.5 s with an average duration of 10 s. […] Subjects then were tested on a current-threshold procedure in which stimulus intensities were varied during four alternating descending and ascending series with a step size of 5 mA. Blocks of three trials were offered at each current step with the starting current of the first descending series set at 30-40 mA above the subjects' individual baseline thresholds estimated at the end of preliminary training. […] An ascending series was terminated after two consecutive blocks of trials during which the animal made positive responses on at least two out of the three trials or after 15 successive increments were presented. The mean of the four current thresholds from the alternating series was defined as the subject's ICSS threshold for that session. A series was terminated after either 15 stimulus increments (or decrements) had occurred, or after the determination of the threshold for the series (see below). Each test session typically lasted 30 min.

Question: Which “occupancy at the dopamine transporter” value (dopamine transporter) does the source give for `CC(NC(C)(C)C)C(=O)c1cccc(Cl)c1` (stereo not drawn) [bupropion, Bupropion hydrochloride] here?
Answer: 22%

Question: And the “area under the curve of the threshold data, 72-h withdrawal period” value (male Wistar rats [1]; bupropion 40 mg/kg, nicotine-pretreated animals)?
Answer: completely reversed

Question: What about the reward thresholds (male Wistar rats [1]; bupropion 40 mg/kg, nicotine-pretreated animals, 24 h time point) of the same molecule?
Answer: still exhibited a significant (P<0.001) reduction in reward thresholds

Question: And the reward thresholds (male Wistar rats [1]; bupropion 10, 20, 40 mg/kg, thirty minutes after administration (18-h time point), nicotine- or saline-pretreated)?
Answer: significant and dose-dependent lowering of reward thresholds at all doses

Question: And the reduction in threshold (male Wistar rats [1]; bupropion, saline pretreated animals, 24 h)?
Answer: short-lived and completely reversed at the next time point tested

Question: And the “long-term effect on somatic signs” value (male Wistar rats [2]; acute bupropion, 12.5 h)?
Answer: has no long-term (12.5 h) effect on the expression of the somatic signs of nicotine withdrawal

Question: What about the “total number of somatic signs” value (male Wistar rats [2]; bupropion 5 mg/kg) of the same molecule?
Answer: 18.6±4

Question: What about the “total number of somatic signs” value (male Wistar rats [2]; bupropion 10 mg/kg) of the same molecule?
Answer: 17.1±4.6

Question: What about the “total number of somatic signs” value (male Wistar rats [2]; bupropion 20 mg/kg) of the same molecule?
Answer: 14.1±2.2

Question: And the “total number of somatic signs” value (male Wistar rats [2]; bupropion 40 mg/kg)?
Answer: 14.6±2.6

Question: And the “abdominal constrictions (writhes and gasps)” value (male Wistar rats [2]; bupropion 10-40 mg/kg, 12-h withdrawal time point)?
Answer: reversed the withdrawal-induced increase in abdominal constrictions

Question: And the total somatic signs (male Wistar rats [2]; bupropion 20-40 mg/kg, 30 min prior to the 12-h withdrawal timepoint)?
Answer: resulted in a reversal of the expression of total somatic signs

Question: What about the brain reward thresholds (male Wistar rats [3]) of the same molecule?
Answer: lowered brain reward thresholds compared to the vehicle conditions

Question: And the “rate of responding for ICSS” value (rats)?
Answer: had no effect on the rate of responding for ICSS

Question: And the brain reward thresholds (male Wistar rats [4]; bupropion 5 mg/kg alone)?
Answer: without effect on reward thresholds when given alone

Question: And the “reward-enhancing effects of acute nicotine” value (male Wistar rats [4]; bupropion 5 mg/kg with nicotine 0.25 mg/kg)?
Answer: completely reversed the reward-enhancing effects of acute nicotine

Question: And the brain reward thresholds (male Wistar rats [4]; bupropion 10 and 20 mg/kg in combination with nicotine 0.25 mg/kg)?
Answer: resulted in threshold lowerings that were not significantly different from threshold lowerings induced by nicotine administration alone

Question: And the brain reward thresholds (male Wistar rats [4]; bupropion 10 and 20 mg/kg, saline co-treated)?
Answer: lowered brain reward thresholds in animals that were co-treated with saline
